# Test system: gestating cows
# Assay: Clinical safety study (abortion, fetal toxicity) in gestating ruminants (Example 3)
# Assay type: in vivo
# Settings: two injections at interval of 48 hours, 25 mcg/kg
# Protocol: This study aims to show the absence of risks such as abortions and fetus toxicity during the use of cabergoline in gestating ruminants even in the case of an overdose of cabergoline based veterinary compositions according to the regimen prescribed in the present invention. Groups of cows at different gestating stages receive the treatment at different doses: • 3 months of gestation (6 animals), dose of 15 mcg/kg—2 injections at an interval of 48 hours • 7 to 8 months of gestation: (5 animals), dose of 15 mcg/kg—2 injections at an interval of 48 hours • 6.5 to 7.5 months of gestation: (11 animals), dose of 25 mcg/kg—2 injections an interval of 48 hours
# The formulation described in the Example 1, containing 500 mcg/ml of cabergoline in injectable solution is used in this study.
# Regular clinical exams were conducted during a period lasting from 7 days before the treatment to 15 days after the treatment:
# Daily general inspection and abortions,
# Clinical exam of the genital tract including transrectal palpation and an ultrasound, in order to evaluate the suffering and fetal viability.
# Blood samplings are conducted one day before the treatment and 15 days after the treatment to follow the plasmatic concentrations of different hormones and proteins indicating the health of the placenta and fetus, such as progesterone, estrone sulfate and the PAG (Pregnancy Associated Glycoprotein). […]
smiles,measurement,value
"C=CCN1C[C@H](C(=O)N(CCCN(C)C)C(=O)NCC)C[C@@H]2c3cccc4[nH]cc(c34)C[C@H]21 [cabergoline, N-[3-(Dimethylamino)propyl]-N-[(ethylamino)carbonyl]-6-(2-propenyl)-8 g-ergoline-8-carboxamide]",abortions,do not provoke any abortions
same,"harmful effect on the gestation, viability and health of the new born calves",neither do they have any harmful effect

# Source: patent publication US9744158B2, “Veterinary antiprolactinic composition for ruminants” (CEVA SANTE ANIMALE, priority 2008, dated 2017)
